Patent US9353152B2, “Induction of the mitochondrial permeability transition” (NewSouth Innovations Pty Limited, priority 2002, dated 2016)

Assays:
HT1080 tumours = assay: Primary tumour growth assay; assay type: in vivo; conditions: 10 mg/kg/day s.c., SCID mice
Procedure: Female 7 to 9 week old SCID or C57Bl6/J mice were used (Massachusetts General Hospital, Boston, Mass.). Mice were held in groups of 3 to 5 at a 12 hour day and night cycle and were given animal chow and water ad libidum. SCID or C57Bl6/J mice were anaesthetised by inhalation of isoflurane, the dorsal skin shaved and cleaned with ethanol, and a suspension of 2.5×10^6 BxPC-3, HT1080 or LLC cells in 0.2 mL of PBS, or saline for LLC cells, was injected S.C. in the proximal midline. LLC cells were prepared according to O'Reilly et al. (1997). Tumour volume was calculated using the relationship, a·b^2·0.52, where a is the longest and b the shortest diameter.

Rat liver mitochondria = assay type: biochemical; conditions: 100 μM GSAO, 0-60 min

N[C@@H](CCC(=O)N[C@@H](CSCC(=O)Nc1ccc([As]=O)cc1)C(=O)NCC(=O)O)C(=O)O (some centres unmarked) [GSAO, 4-(N—(S-glutathionylacetyl)amino)-phenylarsenoxide]
inhibition of the rate of tumour growth (HT1080 tumours): ~70%
release of Cytochrome C into the medium (Rat liver mitochondria): triggered time-dependent release
